Source: patent publication US8114886B2, “Pyridylmethylsulfone derivative” (Daiichi Sankyo Company, Limited, priority 2005, dated 2012)

What was measured:
[1] = test system: β-amyloid protein (Aβ) secreted by E35 cells (H4 cells with APP751 gene); experiment: Screening system using E35 cells for inhibition of production/secretion of β-amyloid protein (sandwich ELISA of Aβ in culture medium); type: cell-based, human; details: Homo sapiens, 24 hours with compound, Aβ in culture supernatant by ELISA, read-out: Inhibitory Activity for Production of A(EC50)
Protocol: The activity of the compound inhibiting β-amyloid protein production was measured on E35 cells prepared by introducing APP751 gene, a gene of a human wild type β-amyloid protein precursor protein, to human glioma cells (H4 cells), by quantifying the amount of β-amyloid protein (Aβ) secreted to the culture medium by means of a sandwich type Enzyme-Linked Immunosorbent Assay (ELISA) method.
That is, E35 cells inoculated on a 96-well plate were cultured in an incubator at 37° C. which was maintained at equilibrium with 5% carbon dioxide, using Dulbecco's Modified Eagle's Medium containing inactivated 10% fetal bovine serum as the culture medium. After 24 hours from the inoculation, a test compound dissolved in a DMSO solution was added. The DMSO solution of the test compound was prepared at a concentration of 2000 times of the final concentration, such that the DMSO concentration in the culture medium would be 0.05%. After culturing for another 24 hours, the culture supernatant was recovered, and this was added to a 96-well plate for ELISA onto which a monoclonal antibody against Aβ, 25-1, was solid-phased. The plate was incubated at 4° C. for 16 to 20 hours. The plate was washed with phosphate buffer solution (pH 7.4), and then a biotinylated monoclonal antibody against Aβ, MA32-40, was added thereto. The plate was left to stand at 4° C. for 2 hours. The plate was washed again with phosphate buffer solution, and then alkaline phosphatase-conjugated streptavidin was added to conjugate streptavidin to biotin. Subsequently, the plate was washed with phosphate buffer solution. To this, Blue Phos (Kirkegaard & Perry Laboratories, Inc.) was added. After incubating the plate for an appropriate time, the reaction was terminated with an acid, and the absorbance for each well was measured. The amount of Aβ contained in the culture supernatant was determined from a calibration curve which was produced separately, and the amount was compared with that of control cells to which the compound was not added. Thus, the concentration at which 50% of the Aβ production is inhibited (EC50 value) was calculated. In addition, the 25-1 antibody and MA32-40 antibody used in ELISA were mouse monoclonal antibodies derived from the hybridoma cell clone lines, which were each produced and selected according to a standard method using Aβ25-35 and Aβ1-8 as antigens, respectively, and which specifically recognize their respective antigens. […]
The scores indicate ++++ for the case where EC50 was 5 nM or less; +++ for the case where EC50 was 5 to 50 nM; ++ for the case where EC50 was 50 to 500 nM; and + for the case where EC50 was 500 nM to 5 μM.

| Compound | melting point | EC50 [1] [nM] |
| --- | --- | --- |
| Cc1cc(C(=O)N2CCOCC2)ncc1C(c1cc(F)ccc1F)S(=O)(=O)c1ccc(F)cc1 (centres unmarked) [Example 77, 4-[[5-[(2,5-Difluorophenyl)[(4-fluorophenyl)sulfonyl]methyl]-4-methylpyridin-2-yl]carbonyl]morpholine] | 165 to 167 °C | 500 to 5000 |
| Cc1cc(C(=O)NC(CO)CO)ncc1C(c1cc(F)ccc1F)S(=O)(=O)c1ccc(F)cc1 (centres unmarked) [Example 75, 5-[(2,5-Difluorophenyl)[(4-fluorophenyl)sulfonyl]methyl]-N-[2-hydroxy-1-(hydroxymethyl)ethyl]-4-methylpyridine-2-carboxamide] | 150 to 152 °C | ≤ 5 |
| CNC(=O)c1cc(C)c(C(c2cc(F)ccc2F)S(=O)(=O)c2ccc(F)cc2)cn1 (centres unmarked) [Example 13, 5-[(2,5-difluorophenyl)[(4-fluorophenyl)sulfonyl]methyl]-N, 4-dimethylpyridine-2-carboxamide] | 201 to 202 °C | ≤ 5 |
| Cc1cc(C(=O)NCO)ncc1C(c1c(F)ccc(F)c1F)S(=O)(=O)c1ccc(OC(F)(F)F)cc1 (centres unmarked) [Example 124, N-(hydroxymethyl)-4-methyl-5-[[[4-(trifluoromethoxy)phenyl]sulfonyl](2,3,6-trifluorophenyl)methyl]pyridine-2-carboxamide] | 140 to 141 °C | 5 to 50 |
| CON(C)C(=O)c1cc(C)c(C(c2cc(F)ccc2F)S(=O)(=O)c2ccc(F)cc2)cn1 (centres unmarked) [Example 79, 5-[(2,5-Difluorophenyl) [(4-fluorophenyl)sulfonyl]methyl]-N-methoxy-N,4-dimethylpyridine-2-carboxamide] | 156 to 158 °C | 50 to 500 |
| CCN(C)C(=O)c1cc(C)c(C(c2cc(F)ccc2F)S(=O)(=O)c2ccc(F)cc2)cn1 (centres unmarked) [Example 18, 5-[(2,5-Difluorophenyl)[(4-fluorophenyl)sulfonyl]methyl]-N-ethyl-N,4-dimethylpyridine-2-carboxamide] | 165 to 167 °C | 50 to 500 |
| Cc1cc(C(=O)N(C)C)ncc1C(c1cc(F)ccc1F)S(=O)(=O)c1ccc(Cl)cc1 (centres unmarked) [Example 5, 5-[[(4-Chlorophenyl)sulfonyl](2,5-difluorophenyl)methyl]-N,N,4-trimethylpyridine-2-carboxamide] | 207 to 208 °C | 50 to 500 |
| Cc1cc(C(N)=O)ncc1C(c1c(F)ccc(F)c1F)S(=O)(=O)c1ccc(C(F)(F)F)nc1 (centres unmarked) [Example 117, 4-Methyl-5-[[[6-(trifluoromethyl)pyridin-3-yl]sulfonyl](2,3,6-trifluorophenyl)methyl]pyridine-2-carboxamide] | 237 to 238 °C | ≤ 5 |
| COc1ccc(S(=O)(=O)C(c2cnc(C(=O)O)cc2C)c2cc(F)ccc2F)cc1F (centres unmarked) [Example 46, 5-[(2,5-Difluorophenyl)[(3-fluoro-4-methoxyphenyl)sulfonyl]methyl]-4-methylpyridine-2-carboxylic acid] | 196 to 197 °C |  |
| Cc1cc(C(=O)NCOC(=O)CO)ncc1C(c1cc(F)ccc1F)S(=O)(=O)c1ccc(F)cc1 (centres unmarked) [Example 109, [[[5-[(2,5-Difluorophenyl)[(4-fluorophenyl)sulfonyl]methyl]-4-methylpyridin-2-yl]carbonyl]amino]methyl hydroxyacetate] | 84 °C |  |
| Cc1cc(C(=O)NCOCc2cccnc2)ncc1C(c1cc(F)ccc1F)S(=O)(=O)c1ccc(F)cc1 (centres unmarked) [Example 113, 5-[(2,5-Difluorophenyl) [(4-fluorophenyl)sulfonyl]methyl]-4-methyl-N-[(pyridin-3-ylmethoxy)methyl]pyridine-2-carboxamide] | 121 to 123 °C |  |

Now from value to compound:

| melting point | EC50 [1] [nM] | Compound |
| --- | --- | --- |
| 134 to 135 °C | 5 to 50 | COc1ccc(S(=O)(=O)C(c2cnc(C(=O)NCCO)cc2C)c2cc(F)ccc2F)cc1 (centres unmarked) [Example 43, 5-[(2,5-Difluorophenyl)[(4-methoxyphenyl)sulfonyl]methyl]-N-(2-hydroxyethyl)-4-methylpyridine-2-carboxamide] |
| 182 to 185 °C | ≤ 5 | Cc1cc(C(=O)NCCCS(C)(=O)=O)ncc1C(c1cc(F)ccc1F)S(=O)(=O)c1ccc(F)cc1 (centres unmarked) [Example 74, 5-[(2,5-Difluorophenyl)[(4-fluorophenyl)sulfonyl]methyl]-4-methyl-N-[3-(methylsulfonyl)propyl]pyridine-2-carboxamide] |
| 167 to 169 °C | ≤ 5 | COC(=O)NCCNC(=O)c1cc(C)c(C(c2cc(F)ccc2F)S(=O)(=O)c2ccc(F)cc2)cn1 (centres unmarked) [Example 84, Methyl[2-[[[5-[(2,5-difluorophenyl)[(4-fluorophenyl)sulfonyl]methyl]-4-methylpyridin-2-yl]carbonyl]amino]ethyl]carbamate] |
| 171 to 173 °C | 500 to 5000 | Cc1cc(C(=O)N2CCC(O)CC2)ncc1C(c1cc(F)ccc1F)S(=O)(=O)c1ccc(F)cc1 (centres unmarked) [Example 76, 1-[[5-[(2,5-Difluorophenyl)[(4-fluorophenyl)sulfonyl]methyl]-4-methylpyridin-2-yl]carbonyl]piperidin-4-ol] |
| 181 to 183 °C |  | Cc1cc(C(=O)NCO)ncc1C(c1c(F)ccc(F)c1F)S(=O)(=O)c1ccc(C(F)F)nc1 (centres unmarked) [Example 136, 5-[[[6-(Difluoromethyl)pyridin-3-yl]sulfonyl](2,3,6-trifluorophenyl)methyl]-N-(1-hydroxymethyl)-4-methylpyridine-2-carboxamide] |
| 111 to 113 °C |  | CC(=O)OCNC(=O)c1cc(C)c(C(c2cc(F)ccc2F)S(=O)(=O)c2ccc(F)cc2)cn1 (centres unmarked) [Example 86, [[[5-[(2,5-Difluorophenyl)(4-fluorophenylsulfonyl)methyl]-4-methylpyridin-2-yl]carbonyl]amino]methyl acetate] |
| 82 to 84 °C |  | Cc1cc(C(=O)NCCO)ncc1C(c1cc(F)ccc1F)S(=O)(=O)c1cc(F)cc(F)c1 (centres unmarked) [Example 100, 5-[(2,5-Difluorophenyl)[(3,5-difluorophenyl)sulfonyl]methyl]-N-(2-hydroxyethyl)-4-methylpyridine-2-carboxamide] |
| 151 to 153 °C |  | CCOC(=O)c1cc(C)c(C(c2cc(F)ccc2F)S(=O)(=O)c2ccc(F)cc2)cn1 (centres unmarked) [Example 91, Diethyl 5-[(2,5-difluorophenyl)[(4-fluorophenyl)sulfonyl]methyl]-4-methylpyridine-2-carboxylic acid] |
| 208 to 209 °C |  | Cc1cc(C(=O)O)ncc1C(c1cc(F)ccc1F)S(=O)(=O)c1ccc(Cl)cc1 (centres unmarked) [Example 3, 5-[[(4-Chlorophenyl)sulfonyl](2,5-difluorophenyl)methyl]-4-methylpyridine-2-carboxylic acid] |
| 119 to 120 °C |  | Cc1cc(C(=O)NCO)ncc1C(c1c(F)ccc(F)c1F)S(=O)(=O)c1ccc(F)c(F)c1 (centres unmarked) [Example 122, 5-[[(3,4-Difluorophenyl)sulfonyl](2,3,6-trifluorophenyl)methyl]-N-(hydroxymethyl)-4-methylpyridine-2-carboxamide] |
| 185 to 186 °C (dec.) |  | Cc1cc(C(=O)NCO)ncc1C(c1c(F)ccc(F)c1F)S(=O)(=O)c1ccc2ccoc2c1 (centres unmarked) [Example 127, 5-[(1-Benzofuran-6-ylsulfonyl)(2,3,6-trifluorophenyl)methyl]-N-(hydroxymethyl)-4-methylpyridine-2-carboxamide] |
| 182 to 183 °C |  | CC(=O)NC(=O)c1cc(C)c(C(c2cc(F)ccc2F)S(=O)(=O)c2ccc(F)cc2)cn1 (centres unmarked) [Example 107, N-acetyl-5-[(2,5-difluorophenyl)[(4-fluorophenyl)sulfonyl]methyl]-4-methylpyridine-2-carboxamide] |
| 194 to 195 °C |  | COc1ccc(S(=O)(=O)C(c2cnc(C(=O)O)cc2C)c2cc(F)ccc2F)cc1 (centres unmarked) [Example 42, 5-[(2,5-Difluorophenyl)[(4-methoxyphenyl)sulfonyl]methyl]-4-methylpyridine-2-carboxylic acid] |
| 175 to 177 °C |  | Cc1cc(C(=O)NCOCCO)ncc1C(c1cc(F)ccc1F)S(=O)(=O)c1ccc(F)cc1 (centres unmarked) [Example 112, 5-[(2,5-Difluorophenyl)[(4-fluorophenyl)sulfonyl]methyl]-N-[(2-hydroxyethoxy)methyl]-4-methylpyridine-2-carboxamide] |
| 223 to 226 °C |  | Cc1cc(C(=O)NCCC(=O)O)ncc1C(c1cc(F)ccc1F)S(=O)(=O)c1ccc(F)cc1 (stereo not drawn) [Example 81, N-[[5-[(2,5-difluorophenyl)[(4-fluorophenyl)sulfonyl]methyl]-4-methylpyridin-2-yl]carbonyl]-β-alanine] |
